Experimental data published in US11780805B2, “Carbamoyl phenylalaninol compounds and uses thereof” (AXSOME MALTA LTD., priority 2016, dated 2023).

Legend:
[1] = target: T1, alpha2A adrenergic receptor (Alpha2A) (Homo sapiens, UniProt P08913); experiment: Competitive radioligand binding assay, Alpha2A; conditions: compound at 10 μM; radioligand yohimbine; cell membrane fractions; read-out: % Inhibition of Binding at Each Transporter or Receptor Target, Alpha2A
T1 sequence (P08913 1-465): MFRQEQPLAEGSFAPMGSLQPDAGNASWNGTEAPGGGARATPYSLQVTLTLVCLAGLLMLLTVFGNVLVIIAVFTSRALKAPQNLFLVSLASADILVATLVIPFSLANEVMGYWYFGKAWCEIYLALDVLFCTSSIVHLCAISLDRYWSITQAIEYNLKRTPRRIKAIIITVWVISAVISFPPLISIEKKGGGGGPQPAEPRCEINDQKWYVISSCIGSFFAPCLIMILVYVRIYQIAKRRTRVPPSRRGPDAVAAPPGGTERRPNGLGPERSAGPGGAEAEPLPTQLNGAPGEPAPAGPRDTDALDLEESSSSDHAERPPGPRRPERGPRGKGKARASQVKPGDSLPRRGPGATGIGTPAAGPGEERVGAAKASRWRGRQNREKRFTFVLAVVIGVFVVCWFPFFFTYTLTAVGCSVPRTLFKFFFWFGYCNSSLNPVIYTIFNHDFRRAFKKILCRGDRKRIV
Method: (§1) Compound 2 was tested for pharmacological activity in comparison to APC. Eight binding assays were carried out to provide a binding profile for each compound, including binding to dopamine transporter (DAT), norepinephrine transporter (NET), serotonin (5-HT) transporter (SERT), alpha2A adrenergic receptor (Alpha2A), alpha2C adrenergic receptor (Alpha2C), D2S dopamine receptor (D2S), D2L, dopamine receptor (D2L), and vesicular monoamine transporter (VMAT2). Competitive binding assays using a radiolabeled ligand were carried out with each compound at 10 μM. The radioligand for each target was as follows: DAT—BTCP, NET—protriptyline, SERT—imipramine Alpha2A—yohimbine, Alpha2C—yohimbine, D2S—7-OH-DPAT, D2L—butaclamol, VMAT2—tetrabenazine. The source of the receptors and transporters were prepared cell membrane fractions.

[2] = target: T2, alpha2C adrenergic receptor (Alpha2C) (Homo sapiens, UniProt P18825); experiment: Competitive radioligand binding assay, Alpha2C; conditions: compound at 10 μM; radioligand yohimbine; cell membrane fractions; read-out: % Inhibition of Binding at Each Transporter or Receptor Target, Alpha2C
T2 sequence (P18825 1-462): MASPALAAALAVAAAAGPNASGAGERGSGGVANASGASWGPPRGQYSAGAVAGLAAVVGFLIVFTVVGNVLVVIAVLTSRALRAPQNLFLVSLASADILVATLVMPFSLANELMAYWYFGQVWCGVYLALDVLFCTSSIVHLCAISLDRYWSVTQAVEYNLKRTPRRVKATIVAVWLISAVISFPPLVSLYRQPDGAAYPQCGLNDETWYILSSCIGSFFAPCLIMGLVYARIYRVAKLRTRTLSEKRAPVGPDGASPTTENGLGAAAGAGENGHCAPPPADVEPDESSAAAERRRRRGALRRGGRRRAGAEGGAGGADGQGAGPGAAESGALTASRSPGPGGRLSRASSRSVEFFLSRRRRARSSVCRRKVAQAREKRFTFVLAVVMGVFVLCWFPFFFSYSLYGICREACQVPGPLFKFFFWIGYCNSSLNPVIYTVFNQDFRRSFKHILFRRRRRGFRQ
Method: as §1

[3] = target: D2S dopamine receptor (D2S) (Homo sapiens, UniProt P14416); experiment: Competitive radioligand binding assay, D2S; conditions: compound at 10 μM; radioligand 7-OH-DPAT; cell membrane fractions; read-out: % Inhibition of Binding at Each Transporter or Receptor Target, D2S
Method: as §1

[4] = target: D2L, dopamine receptor (D2L) (Homo sapiens, UniProt P14416); experiment: Competitive radioligand binding assay, D2L; conditions: compound at 10 μM; radioligand butaclamol; cell membrane fractions; read-out: % Inhibition of Binding at Each Transporter or Receptor Target, D2L
Method: as §1

[5] = target: norepinephrine transporter (NET) (Homo sapiens, UniProt P23975); experiment: Competitive radioligand binding assay, NET; conditions: compound at 10 μM; radioligand protriptyline; cell membrane fractions; read-out: % Inhibition of Binding at Each Transporter or Receptor Target, NET
Method: as §1

[6] = target: dopamine transporter (DAT) (Homo sapiens, UniProt Q01959); experiment: Competitive radioligand binding assay, DAT; conditions: compound at 10 μM; radioligand BTCP; cell membrane fractions; read-out: % Inhibition of Binding at Each Transporter or Receptor Target, DAT
Method: as §1

[7] = target: serotonin (5-HT) transporter (SERT) (Homo sapiens, UniProt P31645); experiment: Competitive radioligand binding assay, SERT; conditions: compound at 10 μM; radioligand imipramine; cell membrane fractions; read-out: % Inhibition of Binding at Each Transporter or Receptor Target, SERT
Method: as §1

[8] = target: vesicular monoamine transporter (VMAT2) (Homo sapiens, UniProt Q05940); experiment: Competitive radioligand binding assay, VMAT2; conditions: compound at 10 μM; radioligand tetrabenazine; cell membrane fractions; read-out: % Inhibition of Binding at Each Transporter or Receptor Target, VMAT2
Method: as §1

Chain of norepinephrine transporter (NET) (P23975 whole entry, species assumed): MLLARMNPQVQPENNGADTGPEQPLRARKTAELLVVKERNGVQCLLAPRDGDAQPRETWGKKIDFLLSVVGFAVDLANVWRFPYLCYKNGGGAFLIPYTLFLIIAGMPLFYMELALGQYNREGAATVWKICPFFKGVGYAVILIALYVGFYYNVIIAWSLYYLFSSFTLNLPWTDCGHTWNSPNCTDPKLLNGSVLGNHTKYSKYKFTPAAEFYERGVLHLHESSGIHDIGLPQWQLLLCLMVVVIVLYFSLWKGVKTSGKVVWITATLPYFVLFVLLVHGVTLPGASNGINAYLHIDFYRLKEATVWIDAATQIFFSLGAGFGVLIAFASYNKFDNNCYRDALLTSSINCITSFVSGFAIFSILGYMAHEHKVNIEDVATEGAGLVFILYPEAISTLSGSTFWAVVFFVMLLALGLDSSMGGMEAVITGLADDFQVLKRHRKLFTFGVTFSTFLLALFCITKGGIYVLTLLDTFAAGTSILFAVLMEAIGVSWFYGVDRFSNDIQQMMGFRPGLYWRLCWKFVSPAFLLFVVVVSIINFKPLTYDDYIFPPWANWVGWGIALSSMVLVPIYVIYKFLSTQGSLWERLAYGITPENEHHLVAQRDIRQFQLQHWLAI
Chain of D2S dopamine receptor (D2S) (P14416 1-414 isoform P14416-2): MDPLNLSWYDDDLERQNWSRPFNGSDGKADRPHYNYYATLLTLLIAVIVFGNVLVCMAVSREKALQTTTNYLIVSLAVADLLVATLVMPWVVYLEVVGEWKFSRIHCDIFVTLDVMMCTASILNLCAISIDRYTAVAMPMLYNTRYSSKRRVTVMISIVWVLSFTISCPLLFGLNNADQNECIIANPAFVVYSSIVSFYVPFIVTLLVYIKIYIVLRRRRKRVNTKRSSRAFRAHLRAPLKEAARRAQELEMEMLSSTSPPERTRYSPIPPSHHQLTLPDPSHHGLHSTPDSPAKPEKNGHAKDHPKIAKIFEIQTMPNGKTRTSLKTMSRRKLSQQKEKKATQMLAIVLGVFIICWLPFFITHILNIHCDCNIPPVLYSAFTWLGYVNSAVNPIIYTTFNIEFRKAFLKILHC
Chain of dopamine transporter (DAT) (Q01959 whole entry, species assumed): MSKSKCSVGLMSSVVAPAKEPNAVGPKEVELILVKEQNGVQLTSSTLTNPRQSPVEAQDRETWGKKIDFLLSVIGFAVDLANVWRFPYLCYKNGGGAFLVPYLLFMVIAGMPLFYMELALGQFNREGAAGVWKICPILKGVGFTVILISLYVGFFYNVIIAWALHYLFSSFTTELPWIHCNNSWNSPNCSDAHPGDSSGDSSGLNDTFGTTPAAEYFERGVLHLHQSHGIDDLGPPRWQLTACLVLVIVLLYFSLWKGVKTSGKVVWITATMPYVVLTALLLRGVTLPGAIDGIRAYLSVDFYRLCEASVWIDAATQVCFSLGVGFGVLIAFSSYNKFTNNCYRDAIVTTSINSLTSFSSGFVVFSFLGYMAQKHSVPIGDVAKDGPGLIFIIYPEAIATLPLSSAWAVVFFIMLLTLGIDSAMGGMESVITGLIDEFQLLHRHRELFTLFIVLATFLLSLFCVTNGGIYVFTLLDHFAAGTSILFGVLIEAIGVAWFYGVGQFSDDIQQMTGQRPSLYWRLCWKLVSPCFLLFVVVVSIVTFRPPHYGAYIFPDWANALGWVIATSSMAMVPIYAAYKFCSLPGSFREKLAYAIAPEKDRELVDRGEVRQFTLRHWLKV
Chain of D2L, dopamine receptor (D2L) (P14416 whole entry): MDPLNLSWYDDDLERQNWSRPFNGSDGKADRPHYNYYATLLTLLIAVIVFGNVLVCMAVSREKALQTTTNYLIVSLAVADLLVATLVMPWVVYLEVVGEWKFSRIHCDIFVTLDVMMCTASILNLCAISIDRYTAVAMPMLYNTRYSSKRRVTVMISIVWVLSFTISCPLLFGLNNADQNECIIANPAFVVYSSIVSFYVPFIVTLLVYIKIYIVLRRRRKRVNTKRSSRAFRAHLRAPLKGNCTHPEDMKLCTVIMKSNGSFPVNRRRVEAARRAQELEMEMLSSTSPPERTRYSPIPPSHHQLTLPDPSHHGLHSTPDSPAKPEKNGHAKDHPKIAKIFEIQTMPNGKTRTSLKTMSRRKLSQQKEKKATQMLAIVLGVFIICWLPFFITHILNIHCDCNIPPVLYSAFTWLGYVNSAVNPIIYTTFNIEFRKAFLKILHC
Chain of vesicular monoamine transporter (VMAT2) (Q05940 whole entry, species assumed): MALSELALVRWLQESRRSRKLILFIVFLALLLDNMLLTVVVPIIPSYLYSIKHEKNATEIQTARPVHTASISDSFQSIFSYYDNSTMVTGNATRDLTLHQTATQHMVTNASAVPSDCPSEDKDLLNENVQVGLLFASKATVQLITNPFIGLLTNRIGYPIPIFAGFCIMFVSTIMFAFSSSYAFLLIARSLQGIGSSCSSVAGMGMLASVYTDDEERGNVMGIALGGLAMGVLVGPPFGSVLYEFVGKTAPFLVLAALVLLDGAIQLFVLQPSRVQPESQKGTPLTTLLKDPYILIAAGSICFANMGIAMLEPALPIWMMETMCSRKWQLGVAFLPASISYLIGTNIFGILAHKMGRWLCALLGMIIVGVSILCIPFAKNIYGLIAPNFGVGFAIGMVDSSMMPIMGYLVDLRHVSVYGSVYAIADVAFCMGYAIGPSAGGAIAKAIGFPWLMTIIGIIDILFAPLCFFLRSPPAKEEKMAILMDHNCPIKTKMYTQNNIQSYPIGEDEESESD
Chain of serotonin (5-HT) transporter (SERT) (P31645 whole entry, species assumed): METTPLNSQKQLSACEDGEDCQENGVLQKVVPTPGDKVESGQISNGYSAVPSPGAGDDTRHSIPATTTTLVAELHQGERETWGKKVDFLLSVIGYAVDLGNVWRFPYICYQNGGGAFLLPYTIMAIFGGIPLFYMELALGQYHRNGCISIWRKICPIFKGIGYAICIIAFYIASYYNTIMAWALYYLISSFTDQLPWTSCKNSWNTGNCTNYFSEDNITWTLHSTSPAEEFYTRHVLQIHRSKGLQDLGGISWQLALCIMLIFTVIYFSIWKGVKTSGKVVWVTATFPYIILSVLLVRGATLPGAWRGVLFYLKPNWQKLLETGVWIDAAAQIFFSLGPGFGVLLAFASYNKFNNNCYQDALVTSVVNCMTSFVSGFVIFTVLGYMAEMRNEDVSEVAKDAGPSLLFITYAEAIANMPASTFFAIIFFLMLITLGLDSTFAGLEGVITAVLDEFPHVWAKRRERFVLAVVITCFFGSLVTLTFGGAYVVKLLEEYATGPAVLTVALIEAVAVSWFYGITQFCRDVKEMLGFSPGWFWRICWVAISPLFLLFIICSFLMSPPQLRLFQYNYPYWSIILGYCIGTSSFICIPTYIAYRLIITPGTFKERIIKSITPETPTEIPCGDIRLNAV

SMILES | inhibition at 10 µM [1] [%] | inhibition at 10 µM [2] [%] | inhibition at 10 µM [3] [%] | inhibition at 10 µM [4] [%] | inhibition at 10 µM [5] [%] | inhibition at 10 µM [6] [%] | inhibition at 10 µM [7] [%] | inhibition at 10 µM [8] [%]
NC(=O)OC[C@H](N)Cc1ccccc1 [APC, (R)-2-amino-3-phenylpropyl carbamate] | 16.5 | 7.4 | 18.7 | -3.4 | 6.2 | 81.4 | 4 | 12
NC(=O)NC(=O)OC[C@H](N)Cc1ccccc1 [Compound 2, D-phenylalaninol allophanate] | 28 | 52.1 | 11.8 | -5.5 | 2.7 | 80.6 | 3.4 | -1
